Assay: solubility of the peptide in the continuous phase
Format: physicochemical
Conditions: continuous aqueous phase (demineralized water containing 1% PVA)
Text: Although the solubility of this peptide in water is high, high encapsulation yields are obtained.

## CC(C)C[C@H](NC(=O)[C@@H](Cc1c[nH]c2ccccc12)NC(=O)[C@H](Cc1ccc(O)cc1)NC(=O)[C@H](CO)NC(=O)[C@H](Cc1c[nH]c2ccccc12)NC(=O)[C@H](Cc1c[nH]cn1)NC(=O)[C@@H]1CCC(=O)N1)C(=O)N[C@@H](CCCNC(=N)N)C(=O)N1CCC[C@H]1C(=O)NCC(N)=O [[D-Trp^6]-LHRH]
  solubility in the continuous phase: about 45 mg/ml
